{"source": "patent US20040116346A1", "about": "“Affinity small molecules for the EPO receptor” (priority 2002, published 2004)", "key": {"[1]": {"tested_on": "CD34+cells", "assay": "erythroid colony formation in methylcellulose, CD34+ cells", "format": "cell-based", "conditions": "colonies counted on day 14", "excerpt": "CD34+cells were isolated and seeded in the presence of compound. The colonies were counted on day 14."}, "[2]": {"tested_on": "carboplatin-treated 8 week old C57BL mice", "assay": "Carboplatin induced anemia model (hematocrit)", "format": "in vivo, mouse", "conditions": "mouse, in vivo", "procedure": "Mice were treated with Carboplatin agent (available from Sigma, used regularly in chemotherapy) and a drop in hematocrit was induced. […] (FIGS. 9-11)\nDetermination of Effect of Non-peptide EPO-R Binding Small Molecule on Hematocrit in Carboplatin-Induced Anemia in 8 Week C57BI Male Mice\nPreparation of injection solutions: Vehicle—Saline with 0.1 mg/mL BSA; Add 30 mg of BSA to 300 mL Saline; Vacuum filter under sterile conditions in laminar flow hood; Aliquot the saline (0.1 mg/mL BSA) solution into mini-sorp tubes. At least 41×7 mL aliquots should be prepared. Place caps on the tubes and store refrigerated at 4° C.;\nCarboplatin—Dose of 120 mg/kg: Calculations for single injection given to 36 male mice (8 wks old˜25 g): […]×0.025 kg×36 mice=108 mg; Injections are delivered i.p. in a volume of 0.5 cc/mouse=0.5 cc/mouse×36 mice=18 cc; Carboplatin at 6 mg/mL for 36 mice: 108 mg/18 cc.; 120 mg/20 cc; On day of injection, add 120 mg carboplatin (Sigma #C2538) to 20 cc saline in a 100 cc beaker containing a stirring bar. Cover beaker with parafilm. Mix until the carboplatin has completely dissolved.\n11 nmole/kg/mouse/day×0.025 kg×12 mice=3.3 nmoles/day; Injections are delivered i.p. in a volume of 0.5 cc/mouse/day=0.5 cc/mouse/day×12 mice=6 cc/day; non-peptide EPO-R binding small molecule for […]: 3.3 nmoles/6 cc each day: 3.85 nmole/7 cc each day; non-peptide EPO-R binding small molecule aliquot at 2 mM=2 nmole/uL; 3.85 nmole per day in 7 cc (0.55 nmole/mL); Therefore: 3.85 nmole divided by 2 nmole/uL stock=1.925 uL at 2 mM; Prepare in advance at least 10 aliquots of non-peptide EPO-R binding small molecule at 2 mM in small microfuge tubes, each with a volume of 2 uL. Freeze these aliquots; On each day of injections, add 1 thawed aliquot of the non-peptide EPO-R binding small molecule at 2 mM containing a 2 uL volume to a tube containing 7 cc of sterile saline (0.1 mg/mL BSA). […]"}}, "data": [{"molecule": "Cc1ccc(Cl)cc1Nc1nc2nc(C)c(NCC3CC3)cn2n1", "note": "[Compound E5]", "values": [{"measurement": "cooperation with EPO on erythroid colony formation", "setting": "[1]", "value": "cooperation"}, {"measurement": "hematocrit levels in animals treated with carboplatin", "setting": "[2]", "value": "restore hematocrit levels"}]}]}
